Inhibition and IC50 data for 62 molecules are collected here from ChEMBL document CHEMBL1135277, “Beta-carbolines as specific inhibitors of cyclin-dependent kinases” (Bioorg Med Chem Lett, 2002).

A word on the inhibition: it is how much of the control response was suppressed. Lower therefore signals little suppression. The term IC50 denotes the concentration that gives 50% inhibition. Low values mean greater potency, high ones weaker potency.

Experiment [1] concerns the target Cyclin-dependent kinase 2 (Homo sapiens) (UniProt P24941). Description: Percentage inhibition against cyclin dependent kinase 2 (CDK 2) at a concentration of 50 uM.
In experiment [2] the target is Tyrosine-protein kinase Fyn (Homo sapiens, UniProt P06241). Description: Inhibition of Fyn kinase.
The target of a further experiment is Protein kinase C (PKC). Nature of the experiment: Inhibition of protein kinase C. Format: protein assay.
Experiment [3] has as its target Cyclin-dependent kinase 2/cyclin A (Homo sapiens, UniProt P24941). Description: Inhibition of Cyclin-dependent kinase 2-cyclin A. Format: protein-complex assay.
In experiment [4] the target is Tyrosine-protein kinase Lyn (Homo sapiens, UniProt P07948). Nature of the experiment: Inhibition of Lyn tyrosine kinase.
Experiment [5] is described as follows: Inhibition of Mitogen-activated protein kinase.
Experiment [6] deals with Tyrosine-protein kinase Lck (Homo sapiens, UniProt P06239). Nature of the experiment: Inhibition of p56 Lck tyrosine kinase.
The target in experiment [7] is Cyclin-dependent kinase 1/cyclin B (Homo sapiens, UniProt P06493). Description: Inhibition of Cell division cycle 2 (CDK1)-cyclin B. In kind it is protein-complex assay.
Experiment [8] addresses Cyclin-dependent kinase 5/CDK5 activator 1 (Homo sapiens, UniProt Q00535). Description: Inhibition of Cyclin-dependent kinase 5-p35nck5a. Format: protein-complex assay.

Some results are limits rather than exact numbers.

Sequence of Tyrosine-protein kinase Lyn (P07948 whole entry): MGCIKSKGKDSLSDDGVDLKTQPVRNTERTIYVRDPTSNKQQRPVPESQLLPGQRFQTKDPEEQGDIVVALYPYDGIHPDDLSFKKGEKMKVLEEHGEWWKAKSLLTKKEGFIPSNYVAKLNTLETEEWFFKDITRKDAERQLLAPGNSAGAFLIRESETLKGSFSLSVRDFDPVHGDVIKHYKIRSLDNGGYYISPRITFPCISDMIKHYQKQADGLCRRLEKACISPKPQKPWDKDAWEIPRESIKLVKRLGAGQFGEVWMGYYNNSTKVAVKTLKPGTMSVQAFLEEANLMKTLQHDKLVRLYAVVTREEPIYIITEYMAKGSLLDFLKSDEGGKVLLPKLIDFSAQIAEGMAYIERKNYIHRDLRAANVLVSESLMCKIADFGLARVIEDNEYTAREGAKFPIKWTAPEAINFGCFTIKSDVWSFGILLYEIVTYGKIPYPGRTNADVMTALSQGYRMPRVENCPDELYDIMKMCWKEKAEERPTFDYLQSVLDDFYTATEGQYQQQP
Sequence of Tyrosine-protein kinase Fyn (P06241 whole entry): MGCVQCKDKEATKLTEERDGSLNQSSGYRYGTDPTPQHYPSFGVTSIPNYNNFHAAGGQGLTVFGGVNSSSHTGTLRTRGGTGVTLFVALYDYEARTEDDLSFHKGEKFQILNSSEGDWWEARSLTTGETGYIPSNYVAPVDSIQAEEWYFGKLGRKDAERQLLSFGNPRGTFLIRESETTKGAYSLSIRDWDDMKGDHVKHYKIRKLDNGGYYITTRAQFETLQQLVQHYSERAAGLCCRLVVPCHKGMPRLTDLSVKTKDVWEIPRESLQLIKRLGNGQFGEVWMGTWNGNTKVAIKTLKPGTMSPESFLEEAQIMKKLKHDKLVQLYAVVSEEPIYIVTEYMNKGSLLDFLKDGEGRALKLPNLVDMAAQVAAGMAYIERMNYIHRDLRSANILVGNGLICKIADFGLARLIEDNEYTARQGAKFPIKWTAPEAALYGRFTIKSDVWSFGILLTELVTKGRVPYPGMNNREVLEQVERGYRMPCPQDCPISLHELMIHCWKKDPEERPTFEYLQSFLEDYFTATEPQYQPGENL
Sequence of Tyrosine-protein kinase Lck (P06239 whole entry): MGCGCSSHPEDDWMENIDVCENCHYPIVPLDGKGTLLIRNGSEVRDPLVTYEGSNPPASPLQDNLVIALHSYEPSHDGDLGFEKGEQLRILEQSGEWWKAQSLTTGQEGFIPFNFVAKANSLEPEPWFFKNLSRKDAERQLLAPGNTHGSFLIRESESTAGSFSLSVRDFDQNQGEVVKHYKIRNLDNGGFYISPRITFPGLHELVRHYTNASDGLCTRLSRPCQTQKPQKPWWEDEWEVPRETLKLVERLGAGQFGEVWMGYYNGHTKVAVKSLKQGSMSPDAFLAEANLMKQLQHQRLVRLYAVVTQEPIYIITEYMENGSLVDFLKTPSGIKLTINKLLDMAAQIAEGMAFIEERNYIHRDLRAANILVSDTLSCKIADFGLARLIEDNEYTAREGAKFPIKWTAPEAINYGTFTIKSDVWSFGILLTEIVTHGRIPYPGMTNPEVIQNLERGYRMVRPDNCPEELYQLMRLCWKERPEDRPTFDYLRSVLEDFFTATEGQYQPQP
Sequence of Cyclin-dependent kinase 5/CDK5 activator 1 (Q00535 whole entry): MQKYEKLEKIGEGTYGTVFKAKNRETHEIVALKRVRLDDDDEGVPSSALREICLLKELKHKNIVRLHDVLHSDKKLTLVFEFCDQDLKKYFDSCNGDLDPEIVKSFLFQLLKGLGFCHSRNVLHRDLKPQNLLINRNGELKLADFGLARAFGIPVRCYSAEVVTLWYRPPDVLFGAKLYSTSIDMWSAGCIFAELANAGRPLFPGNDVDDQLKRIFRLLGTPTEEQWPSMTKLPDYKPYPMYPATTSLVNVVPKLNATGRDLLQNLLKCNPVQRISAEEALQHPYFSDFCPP
Sequence of Cyclin-dependent kinase 5/CDK5 activator 1 (Q15078 whole entry, further chain): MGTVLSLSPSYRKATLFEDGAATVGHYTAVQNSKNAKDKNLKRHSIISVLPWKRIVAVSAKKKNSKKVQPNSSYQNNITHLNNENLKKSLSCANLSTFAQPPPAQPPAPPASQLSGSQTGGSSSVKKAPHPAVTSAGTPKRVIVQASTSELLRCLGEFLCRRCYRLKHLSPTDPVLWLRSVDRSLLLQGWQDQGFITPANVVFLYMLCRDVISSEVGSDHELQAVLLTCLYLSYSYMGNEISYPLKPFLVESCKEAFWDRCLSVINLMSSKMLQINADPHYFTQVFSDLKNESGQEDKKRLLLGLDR

Take `Fc1ccc2c(c1)[nH]c1c(-c3ccccc3)nccc12`: in experiment [1], the inhibition turned out to be 57%.
As for `COc1ccc2c(c1)[nH]c1c(C)nccc12` [HARMINE], the inhibition in experiment [1] was determined as 62%. For the same molecule, the IC50 in [2] is more than 250 µM; at Protein kinase C (PKC), more than 250 µM; in experiment [3], 35 µM; in experiment [4], more than 250 µM; in experiment [5], more than 250 µM; in [6], more than 250 µM.
Regarding `Brc1ccccc1-c1[nH]ccc2c3ccccc3nc1-2`, the inhibition in experiment [1] amounted to 10%.
`Fc1ccccc1-c1[nH]ccc2c3ccccc3nc1-2` came in with an inhibition in experiment [1] of 64%.
Turning to `Cc1nccc2c1[nH]c1cc(F)ccc12`, the IC50 in [7] is 42 µM; in experiment [2], more than 250 µM; against Protein kinase C (PKC), more than 250 µM; in [3], 30 µM; in experiment [4] it was more than 250 µM; in experiment [5], more than 250 µM. Moreover, the IC50 in [6] is more than 250 µM. This molecule also returned an inhibition in experiment [1] of 65%.
`Cc1[nH]cnc1-c1[nH]ccc2c3ccc(F)cc3nc1-2` came in with an inhibition in experiment [1] of 51%.
Consider `Cc1[nH]cnc1-c1nccc2c1[nH]c1ccccc12`, for which the half-inhibitory concentration (IC50) in [7] is 25 µM; in [2], more than 250 µM; against Protein kinase C (PKC), more than 250 µM; in experiment [3] it was 6 µM; in [4], more than 250 µM; in experiment [5], more than 250 µM. This molecule also yielded an inhibition in experiment [1] of 89%.
In [1], `Clc1ccccc1-c1[nH]ccc2c3ccccc3nc1-2` displayed an inhibition of 69%.
Same read-out and setting: next, `Cc1nccc2c1[nH]c1ccc(F)cc12`: 46%; `CCCc1nccc2c1[nH]c1ccccc12`: 43%.
On the same count and under the same terms, next, `Fc1ccc2c(c1)[nH]c1c(-c3ccccc3F)nccc12`: 55%.
Consider `O=[N+]([O-])c1ccc(Cl)c(-c2[nH]ccc3c4ccccc4nc2-3)c1`, for which the IC50 in experiment [7] is 45 µM; in experiment [2], more than 250 µM; at Protein kinase C (PKC), more than 250 µM; in experiment [3], 22 µM; in [4], more than 250 µM; in experiment [8], more than 1200 µM. Moreover, the inhibition in [1] came out at 70%.
Consider `CCCCOc1ccc2c(c1)[nH]c1c(C)nccc12`, for which, in experiment [1], the inhibition is 50%.
On the same count and under the same terms, next, `CC(C)(C)c1[nH]ccc2c3ccccc3nc1-2`: 50%; `c1ccc2c(c1)[nH]c1cnccc12`: 37%; `COc1ccc2c3c([nH]c2c1)C(C)=NCC3`: 10%.
Molecule `Fc1ccc(-c2nccc3c2[nH]c2ccccc23)cc1` had an inhibition in experiment [1] of 20%.
Same read-out and setting: next, `O=[N+]([O-])c1ccc(-c2[nH]ccc3c4ccccc4nc2-3)cc1Cl`: 4%.
On to `Cc1ccc(-c2[nH]ccc3c4ccccc4nc2-3)c(C)c1`, for which the inhibition in experiment [1] came to 5%.
Molecule `CCCNC(=O)Oc1ccc2c(c1)[nH]c1c(C)nccc12` registered an inhibition in experiment [1] of 61%.
With `Clc1ccc(-c2nccc3c2[nH]c2ccccc23)cc1`, in experiment [1], the inhibition amounted to 48%.
Consider `Cc1nccc2c1[nH]c1ccccc12`, for which the inhibition in experiment [1] amounted to 47%.
Still for that read-out and setting: next, `Cc1nccc2c1[nH]c1cc(OCCN3C(=O)c4ccccc4C3=O)ccc12`: 8%; `COc1ccc(-c2nccc3c2[nH]c2ccccc23)cc1`: 6%; `Cc1ccc2c(c1)[nH]c1c(C)nccc12`: 23%.
Regarding `O=[N+]([O-])c1cccc(-c2[nH]ccc3c4ccccc4nc2-3)c1`, in [1], the inhibition stood at 19%.
The same measure, in the same setting: next, `CCc1nccc2c1[nH]c1cc(F)ccc12`: 54%; `COc1ccc2[nH]c3c(C)nccc3c2c1`: 2%; `Cc1nccc2c1[nH]c1cc(OCCOC(=O)c3ccccc3)ccc12`: 13%.
The same measure, in the same setting: next, `Cc1nccc2c1[nH]c1cc(Oc3ncc(C(F)(F)F)cc3Cl)ccc12`: 10%; `CCOC(COc1ccc2c(c1)[nH]c1c(C)nccc12)OCC`: 1%.
In experiment [1], `O=[N+]([O-])c1ccc(-c2[nH]ccc3c4ccccc4nc2-3)cc1` returned an inhibition of 31%.
In turn, `O=[N+]([O-])c1ccccc1-c1[nH]ccc2c3ccccc3nc1-2` had an inhibition in experiment [1] of 43%.
For `Cc1nccc2c1[nH]c1cc(OCCO)ccc12`, the inhibition in experiment [1] was determined as 4%.
Still for that read-out and setting: next, `COc1ccc2[nH]c3c(C(=O)O)nccc3c2c1`: 12%.
On the same count and under the same terms, next, `Cc1ccc2[nH]c3c(C)nccc3c2c1`: 15%; `CC(C)c1nccc2c1[nH]c1ccccc12`: 44%; `CCOc1ccc2c(c1)[nH]c1c(C)nccc12`: 43%.
Regarding `Cc1nccc2c1[nH]c1cccc(F)c12`, in experiment [1], the inhibition worked out at 55%.
In [1], `Cc1nccc2c1[nH]c1cccc(C)c12` had an inhibition of 30%.
Same read-out and setting: next, `COc1cccc(-c2[nH]ccc3c4ccccc4nc2-3)c1`: 5%; `Cc1[nH]ccc2c1[nH]c1cc(=O)ccc12`: 69%; `c1ccc2c(c1)[nH]c1c(-c3c[nH]cn3)nccc12`: 30%.
Still for that read-out and setting: next, `Cc1nccc2c1[nH]c1cc(OC(=O)NC3CCCCC3)ccc12`: 53%; `Fc1ccc(-c2[nH]ccc3c4ccccc4nc2-3)c(F)c1`: 56%.
Molecule `Clc1cccc(-c2nccc3c2[nH]c2ccccc23)c1` gave an inhibition in [1] of 32%.
Same read-out and setting: next, `CCCc1nccc2c1[nH]c1cc(F)ccc12`: 60%; `Cc1nccc2c1[nH]c1cc(OCC(N)=O)ccc12`: 15%.
Same read-out and setting: next, `CCCc1ncc(N)c2c1[nH]c1ccccc12`: 22%; `Cc1nccc2c1[nH]c1cc(OCC(=O)OCc3ccccc3)ccc12`: 57%; `COC(=O)Cc1nccc2c1[nH]c1ccccc12`: 11%.
The same measure, in the same setting: next, `c1ccc(-c2nccc3c2[nH]c2ccccc23)cc1`: 13%; `FC(F)(F)c1[nH]ccc2c3ccccc3nc1-2`: 39%; `Cc1nccc2c1[nH]c1cc(OCCC3(C)OCC(C)(C)CO3)ccc12`: 27%.
`N#Cc1ccc(-c2nccc3c2[nH]c2ccccc23)cc1` returned an inhibition in experiment [1] of 29%.
With `Cc1nccc2c1[nH]c1ccc(OC(=O)c3ccccc3)cc12`, in [1], the inhibition was 2%.
Same read-out and setting: next, `N#Cc1ccccc1-c1[nH]ccc2c3ccccc3nc1-2`: 8%; `Cc1ccc2c(c1)[nH]c1c(-c3ccccc3F)nccc12`: 36%; `CC1=NCCc2c1[nH]c1cc(O)ccc21`: 13%.
Same read-out and setting: next, `CC(=O)OCCOc1ccc2c(c1)[nH]c1c(C)nccc12`: 23%; `Fc1cccc(-c2nccc3c2[nH]c2ccccc23)c1`: 6%; `N#Cc1cccc(-c2nccc3c2[nH]c2ccccc23)c1`: 31%.
